In ChEMBL document CHEMBL1201862, “PubChem BioAssay data set” (2004):
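Following 48 hours of exposure in 96-well plates, responses at five concentrations were used to interpolate endpoints linearly. GI50: concentration for 50% inhibition of growth.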 Active and inactive are the calls of the source. Rule as the data show it: active = GI50 up to about 1.1 µM and inactive = higher.

Experiments:
Test in all cases: DTP human tumour cell line panel, 48 h
COLO 205 = system: COLO 205
MDA-MB-435 = system: MDA-MB-435
HOP-62 = system: HOP-62
Hs-578T = system: Hs-578T
HCC 2998 = system: HCC 2998
A498 = system: A498
SF-539 = system: SF-539
786-0 = system: 786-0
OVCAR-4 = system: OVCAR-4
MDA-N = system: MDA-N
SK-OV-3 = system: SK-OV-3
OVCAR-5 = system: OVCAR-5
SK-MEL-5 = system: SK-MEL-5
SK-MEL-2 = system: SK-MEL-2
MOLT-4 = system: MOLT-4
MCF7 = system: MCF7
OVCAR-8 = system: OVCAR-8
LOX IMVI = system: LOX IMVI
T47D = system: T47D
HL-60 = system: HL-60

Structure (SMILES) | GI50 (COLO 205) | GI50 (MDA-MB-435) | GI50 (HOP-62) | GI50 (Hs-578T) | GI50 (HCC 2998) | GI50 (A498) | GI50 (SF-539) | GI50 (786-0) | GI50 (OVCAR-4) | GI50 (MDA-N) | GI50 (SK-OV-3) | GI50 (OVCAR-5) | GI50 (SK-MEL-5) | GI50 (SK-MEL-2) | GI50 (MOLT-4) | GI50 (MCF7) | GI50 (OVCAR-8) | GI50 (LOX IMVI) | GI50 (T47D) | GI50 (HL-60)
CCCC#CC(O)(C(=O)OC1CCN(C)CC1)C1CCCCC1 (centres undefined) | 94.6 µM (inactive) | > 100 µM (inactive) | 52 µM (inactive) | 14.1 µM (inactive) | > 100 µM (inactive) | 94.6 µM (inactive) | > 100 µM (inactive) | > 100 µM (inactive) | > 100 µM (inactive) | > 100 µM (inactive) | > 100 µM (inactive) | > 100 µM (inactive) | 38.9 µM (inactive) | > 100 µM (inactive) | 91.6 µM (inactive) | > 100 µM (inactive) | > 100 µM (inactive) | > 100 µM (inactive) | > 100 µM (inactive) | –
CCOC1OC(CO[Si](C)(C)C(C)(C)C)C(O)CC1n1ccc(=O)[nH]c1=O (centres undefined) | 80.5 µM (inactive) | > 100 µM (inactive) | – | > 100 µM (inactive) | > 100 µM (inactive) | > 100 µM (inactive) | 75.7 µM (inactive) | 78.3 µM (inactive) | > 100 µM (inactive) | > 100 µM (inactive) | – | > 100 µM (inactive) | 59.2 µM (inactive) | > 100 µM (inactive) | 27.7 µM (inactive) | 31.5 µM (inactive) | 33.7 µM (inactive) | 17.4 µM (inactive) | 52 µM (inactive) | –
CC1(CC(=O)O)OC2CCCCCC2O1.NCc1ccccc1 (centres undefined) | > 100 µM (inactive) | > 100 µM (inactive) | > 100 µM (inactive) | > 100 µM (inactive) | – | > 100 µM (inactive) | > 100 µM (inactive) | > 100 µM (inactive) | > 100 µM (inactive) | 73.8 µM (inactive) | > 100 µM (inactive) | > 100 µM (inactive) | 88.1 µM (inactive) | > 100 µM (inactive) | > 100 µM (inactive) | > 100 µM (inactive) | > 100 µM (inactive) | > 100 µM (inactive) | 92.9 µM (inactive) | > 100 µM (inactive)
COc1ccc(Oc2cccc(C3C4C(=O)N(c5ccc(C)c(Cl)c5)C(=O)C4ON3C(C(N)=O)c3ccccc3)c2)cc1 (centres undefined) | 15.1 µM (inactive) | 15.5 µM (inactive) | 35.2 µM (inactive) | 17.9 µM (inactive) | – | 38.5 µM (inactive) | 10.4 µM (inactive) | 16.1 µM (inactive) | 18.9 µM (inactive) | 10.4 µM (inactive) | > 50 µM (inactive) | 17.7 µM (inactive) | 9.55 µM (inactive) | 11.2 µM (inactive) | 11.8 µM (inactive) | 15.3 µM (inactive) | 17.5 µM (inactive) | 13.7 µM (inactive) | 9.23 µM (inactive) | 12.6 µM (inactive)
CC(C)(C)[Si](C)(C)Oc1ccc(C2CNC(=O)C23CCC(=O)N3Cc2ccccc2)cc1 (centres undefined) | 11.7 µM (inactive) | 12.4 µM (inactive) | 20.5 µM (inactive) | 7.31 µM (inactive) | – | 12.2 µM (inactive) | 16.7 µM (inactive) | 18.9 µM (inactive) | 13.7 µM (inactive) | 13.3 µM (inactive) | 15.5 µM (inactive) | 17.5 µM (inactive) | 5.71 µM (inactive) | 16.6 µM (inactive) | 6.14 µM (inactive) | 4.54 µM (inactive) | 12.6 µM (inactive) | 16.1 µM (inactive) | 15.9 µM (inactive) | 4.62 µM (inactive)
c1ccc2c(c1)cc1ccc3cccc4ccc2c1c34 | > 100 µM (inactive) | > 100 µM (inactive) | > 100 µM (inactive) | > 100 µM (inactive) | > 100 µM (inactive) | – | > 100 µM (inactive) | > 100 µM (inactive) | – | > 100 µM (inactive) | > 100 µM (inactive) | – | > 100 µM (inactive) | > 100 µM (inactive) | > 100 µM (inactive) | 0.134 µM (active) | > 100 µM (inactive) | > 100 µM (inactive) | > 100 µM (inactive) | > 100 µM (inactive)
O=C(NC(=O)c1ccccc1)OC(c1ccccc1)C1CO1 (centres undefined) | > 100 µM (inactive) | > 100 µM (inactive) | > 100 µM (inactive) | > 100 µM (inactive) | > 100 µM (inactive) | – | > 100 µM (inactive) | > 100 µM (inactive) | > 100 µM (inactive) | > 100 µM (inactive) | > 100 µM (inactive) | > 100 µM (inactive) | > 100 µM (inactive) | > 100 µM (inactive) | > 100 µM (inactive) | > 100 µM (inactive) | > 100 µM (inactive) | > 100 µM (inactive) | > 100 µM (inactive) | > 100 µM (inactive)
